Key:
[1] = Cysteamine degradation in anti-oxidant formulations, vials exposed to atmospheric oxygen (UV-vis); assay type: physicochemical
Description: All formulations containing hydrophilic components (SUR, CAT) were prepared by stirring at room temperature till dissolution. All formulations were tested for pH and adjusted to 7.4 if required. For each formulation, 20 mL of liquid was placed into a 22 mL, flat bottom, 28 mm diameter, glass vial (Fisher Scientific). Each formulation was purged with nitrogen gas for two hours to minimize dissolved oxygen. After purging, 2.0±0.1 mg cysteamine was added to each formulation to achieve a concentration of 0.1 mg mL^−1 which is about one-fourth of the concentration in the commercial formulation. We are interested in the relative changes in degradation rates by addition of anti-oxidants so reducing concentration will not be a significant factor. […] The vials were then left exposed to atmospheric oxygen to ensure that the degradation rates were not limited by availability of oxygen. The formulations were periodically sampled for measurement of UV spectra in 190-350 nm range (Thermo Scientific™ GENESYS™ 10S UV-Vis Spectrophotometer). The spectra of cysteamine and the oxidation product cystamine are sufficiently different so the combined spectra obtained from the samples can be separated via a least square fit to yield the concentrations of both components. After analyzing, the solution was returned to the vial to conserve total volume. […]

[2] = Cysteamine degradation in eye drop bottles with OMAC film barrier / combined approach, drops withdrawn periodically; assay type: physicochemical; conditions: calculated, 30 μL drop
Description: To explore the effect of any alterations in packaging, it was considered more realistic to use a commercial eye drop bottle. […] As these systems were in a nearly closed system, evaporation was not a concern, so they could be run for longer durations of time compared to the anti-oxidant experiments performed open to atmosphere. At certain time intervals, the screw cap was removed, and the bottle was squeezed to eject one drop. The mass of the drop was measured, and the drop was diluted 100 fold by PBS. This diluted solution was then measured by UV-vis spectrophotometry to determine the degradation of cysteamine.
Catalase (0.15%) was added to the cysteamine solution, which was nitrogen purged for an additional half hour. The solution was then placed in the bottle and topped with a 1.0 cm layer of 50% (v/v) soybean oil and 50% vitamin E. The bottle was then capped and tested for degradation of cysteamine while periodically withdrawing eye drop samples, as described in section 2.2.2.2.

Structure (SMILES): NCCS [cysteamine, Cysteamine]
- degradation rate ([1]; 0.1 mg mL^−1 of cysteamine): 126 ± 4 µg/h
- degradation rate ([1]; 4.4 mg mL^−1 of cysteamine): 132 ± 15 µg/h
- degradation rate from air entering the bottle after each drop [2]: roughly 10 μg/hr

— patent publication US12685715B2, “Compositions, methods of treatment, and containers including compositions” (University of Florida Research Foundation, Inc., priority 2018, dated 2026)
